Assay results taken from patent US9617221B2, “Kinase modulators for the treatment of cancer” (Synovo GmbH, priority 2010, dated 2017).
Several values for one entry are separate records, joined by “and”; a condition that tells them apart may be missing. Equal entries are not always repeated.

Assays:
Type in all cases: cell-based, mice
NO = NO production by LPS-stimulated macrophages; conditions: 10 μM, 72 h
IL-6 = IL-6 production by LPS-stimulated macrophages; conditions: 10 μM, 72 h
Method: (§1) Peritoneal macrophage or splenocytes (lymphocytes and macrophage) were harvested from donor mice using standard techniques. Cells were placed in culture and stimulated with either LPS (10 μg/mL) or concanavalin A 5 μg/mL (Sigma Chemical Co., St Louis, Mo.) in RPMI-1640 medium supplemented with antibiotics, […] 2-mercaptoethanol, 10 mm HEPES buffer and 10% fetal calf serum (FCS) (see Holan et al., 1985) to stimulate macrophage and T-cells respectively. Compounds were added from DMSO stock solutions to a final concentration of 50 μM or less with DMSO not exceeding 1% of total volume. After 72 h, cell supernatant was recovered and the cytokine levels were estimated by ELISA. The effect of compounds on cytokine production was recorded as follows: […]

IL-10 [1] = assay: IL-10 production by LPS-stimulated murine peritoneal macrophage (ELISA); conditions: for IL-10 by ELISA, % of solvent treated control: murine peritoneal macrophage; for IL-10 (LPS, Macrophages), amount of cytokine: 10 μM, 72 h
Method: as §1

IL-2 = IL-2 production by ConA-stimulated T cells; conditions: 10 μM, 72 h
Method: as §1

IL-10 [2] = assay: IL-10 production by ConA-stimulated T cells; conditions: 10 μM, 72 h
Method: as §1

IL-1β = IL-1β production by LPS-stimulated macrophages; conditions: 5 μM, 72 h
Method: as §1

IL-4 = IL-4 production, Con A, spleen; conditions: 5 μM, 72 h
Method: as §1

IFN-g = IFN-g production by ConA-stimulated T cells; conditions: 10 μM, 72 h
Method: as §1

T cells = assay: Proliferation of Con A-stimulated T cells; conditions: 10 μM
Method: as §1

B cells = assay: Proliferation of LPS-stimulated B cells; conditions: 10 μM

For CC[C@H]1OC(=O)[C@H](C)[C@@H](O[C@H]2C[C@@](C)(OC)[C@@H](O)[C@H](C)O2)[C@H](C)[C@@H](O[C@@H]2O[C@H](C)C[C@H](N(C)CC3CO3)[C@H]2O)[C@](C)(O)C[C@@H](C)C(=O)[C@H](C)[C@@H](O)[C@]1(C)O (stereo partly shown) [Compound 18, 3′-desmethyl-3′-oxiranylmethyl erythromycin], the “NO (LPS, Macrophages), % of control treated with solvent alone” value (shortened to “NO (LPS, Macrophages), %”) (NO) was 47 % of control treated with solvent alone and 54 % of control treated with solvent alone and 65 % of control treated with solvent alone, the “IL-6 (LPS, Macrophages), amount of cytokine” value (shortened to “IL-6 (LPS, Macrophages)”) (IL-6) was 90 % of control treated with solvent alone and 109 % of control treated with solvent alone and 106 % of control treated with solvent alone and the “IL-10 by ELISA, % of solvent treated control” value (from here on “IL-10 by ELISA, %”) (IL-10 [1]; 1 μM inhibitor in medium) was 124 % of solvent treated control. The “IL-10 by ELISA, %” value (IL-10 [1]; 5 μM inhibitor in medium) was 109 % of solvent treated control, the “IL-10 by ELISA, %” value (IL-10 [1]; 10 μM inhibitor in medium) was 109 % of solvent treated control and the “IL-10 (LPS, Macrophages), amount of cytokine” value (“IL-10 (LPS, Macrophages)” below) (IL-10 [1]) was 110 % of control treated with solvent alone and 108 % of control treated with solvent alone. The “IL-10 by ELISA, %” value (IL-10 [1]; 20 μM inhibitor in medium) was 57 % of solvent treated control, the “IL-2 (ConA, T cells), amount of cytokine” value (IL-2) was 52 % of control treated with solvent alone and 86 % of control treated with solvent alone and the “IL-10 (ConA, T cells), amount of cytokine” value (“IL-10 (ConA, T cells)” below) (IL-10 [2]) was 38 % of control treated with solvent alone and 70 % of control treated with solvent alone. The “IL-1β (Macrophages, LPS), amount of cytokine” value (“IL-1β (Macrophages, LPS)” for short) (IL-1β) was 104 % of control treated with solvent alone and 81 % of control treated with solvent alone and 70 % of control treated with solvent alone and the “IL-4 (Con A, spleen), amount of cytokine” value (IL-4) was 91 % of control treated with solvent alone and 84 % of control treated with solvent alone.

For CC[C@H]1OC(=O)[C@H](C)[C@@H](O[C@H]2C[C@@](C)(OC)[C@@H](O)[C@H](C)O2)[C@H](C)[C@@H](O[C@@H]2O[C@H](C)C[C@H](N(C)CCCC(=O)OCC(O)CSc3nc(-c4ccc(F)cc4)c(-c4ccnc(NC(C)c5ccccc5)c4)[nH]3)[C@H]2O)[C@](C)(O)C[C@@H](C)CN(C)[C@H](C)[C@@H](O)[C@]1(C)O (stereo partly shown) [Compound 43i], the “IL-6 (LPS, Macrophages)” value (IL-6) was 33 % of control treated with solvent alone and 32 % of control treated with solvent alone, the “IL-10 by ELISA, %” value (IL-10 [1]; 2 μM inhibitor in medium) was 25 % of solvent treated control and the “IL-10 by ELISA, %” value (IL-10 [1]; 10 μM inhibitor in medium) was 3 % of solvent treated control. For the same compound, the “IL-10 by ELISA, %” value (IL-10 [1]; 50 μM inhibitor in medium) was 0 % of solvent treated control and the “IL-4 (Con A, spleen), amount of cytokine” value (IL-4) was 8 % of control treated with solvent alone.

With CC[C@H]1OC(=O)[C@H](C)[C@@H](O)[C@H](C)[C@@H](O[C@@H]2O[C@H](C)C[C@H](N(C)CC(O)CSc3nc(-c4ccc(F)cc4)c(-c4ccncc4)[nH]3)[C@H]2O)[C@](C)(O)C[C@@H](C)CN(C)[C@H](C)[C@@H](O)[C@]1(C)O (stereo partly shown) [Compound 22] the “NO (LPS, Macrophages), %” value (NO) was 69 % of control treated with solvent alone, the “IL-6 (LPS, Macrophages)” value (IL-6) was 116 % of control treated with solvent alone and the “IL-10 by ELISA, %” value (IL-10 [1]; 0.31 μM inhibitor in medium) was 103 % of solvent treated control. For the same compound, the “IL-10 by ELISA, %” value (IL-10 [1]; 1.25 μM inhibitor in medium) was 86 % of solvent treated control, the “IL-10 by ELISA, %” value (IL-10 [1]; 5 μM inhibitor in medium) was 43 % of solvent treated control and the “IL-10 by ELISA, %” value (IL-10 [1]; 10 μM inhibitor in medium) was 13 % of solvent treated control. For the same compound, the “IL-10 (LPS, Macrophages)” value (IL-10 [1]) was 13 % of control treated with solvent alone, the “IL-10 by ELISA, %” value (IL-10 [1]; 20 μM inhibitor in medium) was −3 % of solvent treated control and the “IL-2 (ConA, T cells), amount of cytokine” value (IL-2) was 29 % of control treated with solvent alone. For the same compound, the “IFN-g (ConA, T cells), amount of cytokine” value (“IFN-g (ConA, T cells)” below) (IFN-g) was 41 % of control treated with solvent alone, the “IL-10 (ConA, T cells)” value (IL-10 [2]) was 144 % of control treated with solvent alone and the “IL-1β (Macrophages, LPS)” value (IL-1β) was 90 % of control treated with solvent alone and 106 % of control treated with solvent alone. The “IL-4 (Con A, spleen), amount of cytokine” value (IL-4) was 237 % of control treated with solvent alone and 407 % of control treated with solvent alone and the “Proliferation (Con A, T cells)” value (T cells) was 10 % of control treated with solvent alone.

With CC[C@H]1OC(=O)[C@H](C)[C@@H](OC2CC(C)(OC)C(O)C(C)O2)[C@H](C)[C@@H](OC2OC(C)CC(NC)C2O)C(C)(O)C[C@@H](C)C(=O)[C@H](C)[C@@H](O)C1(C)O (stereo partly shown) [Compound 16, 3′-desmethyl erythromycin] the “NO (LPS, Macrophages), %” value (NO) was 63 % of control treated with solvent alone, the “IL-6 (LPS, Macrophages)” value (IL-6) was 85 % of control treated with solvent alone and the “IL-10 by ELISA, %” value (IL-10 [1]; 1 μM inhibitor in medium) was 117 % of solvent treated control. The “IL-10 by ELISA, %” value (IL-10 [1]; 5 μM inhibitor in medium) was 99 % of solvent treated control, the “IL-10 by ELISA, %” value (IL-10 [1]; 20 μM inhibitor in medium) was 8 % of solvent treated control and the “IFN-g (ConA, T cells)” value (IFN-g) was 2 % of control treated with solvent alone. The “IL-1β (Macrophages, LPS)” value (IL-1β) was 85 % of control treated with solvent alone and the “Proliferation (Con A, T cells)” value (T cells) was 0 % of control treated with solvent alone.

In the case of CC[C@H]1OC(=O)[C@H](C)[C@@H](O[C@H]2C[C@@](C)(OC)[C@@H](O)[C@H](C)O2)[C@H](C)[C@@H](O[C@@H]2O[C@H](C)C[C@H](N(C)CCCC(=O)OCC(O)COc3cccc(C(=O)c4cnn(-c5ccc(F)cc5)c4N)c3)[C@H]2O)[C@](C)(O)C[C@@H](C)CN(C)[C@H](C)[C@@H](O)[C@]1(C)O (stereo partly shown) [Compound 43h], the “IL-10 by ELISA, %” value (IL-10 [1]; 1.25 μM inhibitor in medium) is reported as 68 % of solvent treated control, the “IL-10 by ELISA, %” value (IL-10 [1]; 5 μM inhibitor in medium) is reported as 52 % of solvent treated control and the “IL-10 by ELISA, %” value (IL-10 [1]; 20 μM inhibitor in medium) is reported as −11 % of solvent treated control. For the same compound, the “IL-4 (Con A, spleen), amount of cytokine” value (IL-4) was 280 % of control treated with solvent alone.

CC[C@H]1OC(=O)[C@H](C)[C@@H](O[C@H]2C[C@@](C)(OC)[C@@H](O)[C@H](C)O2)[C@H](C)[C@@H](O[C@@H]2O[C@H](C)C[C@H](N(C)CC(O)CSc3nc(-c4ccc(F)cc4)c(-c4ccncc4)[nH]3)[C@H]2O)[C@](C)(O)C[C@@H](C)C(=O)[C@H](C)[C@@H](O)[C@]1(C)O (stereo partly shown) [Compound 21] was tested, and the “IL-6 (LPS, Macrophages)” value (IL-6) was 101 % of control treated with solvent alone, the “IL-10 by ELISA, %” value (IL-10 [1]; 0.31 μM inhibitor in medium) was 132 % of solvent treated control and the “IL-10 by ELISA, %” value (IL-10 [1]; 1.25 μM inhibitor in medium) was 95 % of solvent treated control. For the same compound, the “IL-10 by ELISA, %” value (IL-10 [1]; 5 μM inhibitor in medium) was 1 % of solvent treated control, the “IL-10 by ELISA, %” value (IL-10 [1]; 10 μM inhibitor in medium) was −13 % of solvent treated control and the “IL-10 by ELISA, %” value (IL-10 [1]; 20 μM inhibitor in medium) was −8 % of solvent treated control. For the same compound, the “IFN-g (ConA, T cells)” value (IFN-g) was 0 % of control treated with solvent alone and the “IL-1β (Macrophages, LPS)” value (IL-1β) was 101 % of control treated with solvent alone and 143 % of control treated with solvent alone.

For CCC(C)Nc1cc(-c2[nH]c(SCC(O)COC(=O)CCCN(C)[C@H]3C[C@@H](C)O[C@@H](O[C@@H]4[C@@H](C)[C@H](O[C@H]5C[C@@](C)(OC)[C@@H](O)[C@H](C)O5)[C@@H](C)C(=O)O[C@H](CC)[C@@](C)(O)[C@H](O)[C@@H](C)N(C)C[C@H](C)C[C@@]4(C)O)[C@@H]3O)nc2-c2ccc(F)cc2)ccn1 (stereo partly shown) [Compound 43d], the “NO (LPS, Macrophages), %” value (NO) was 52 % of control treated with solvent alone, the “IL-6 (LPS, Macrophages)” value (IL-6) was 95 % of control treated with solvent alone and the “IL-10 by ELISA, %” value (IL-10 [1]; 2 μM inhibitor in medium) was 15 % of solvent treated control. For the same compound, the “IL-10 by ELISA, %” value (IL-10 [1]; 10 μM inhibitor in medium) was −4 % of solvent treated control, the “IL-10 (LPS, Macrophages)” value (IL-10 [1]) was −4 % of control treated with solvent alone and the “IL-10 by ELISA, %” value (IL-10 [1]; 50 μM inhibitor in medium) was −4 % of solvent treated control. The “IL-2 (ConA, T cells), amount of cytokine” value (IL-2) was 0 % of control treated with solvent alone, the “IFN-g (ConA, T cells)” value (IFN-g) was 3 % of control treated with solvent alone and the “IL-10 (ConA, T cells)” value (IL-10 [2]) was −2 % of control treated with solvent alone. For the same compound, the “Proliferation (Con A, T cells)” value (T cells) was −2 % of control treated with solvent alone and the “Proliferation (LPS, B cells)” value (B cells) was −3 % of control treated with solvent alone.
